Measured values published in US20240083917A1, “Polycyclic Kinase Inhibitor” (priority 2021, published 2024).

Biological target: DNA-PK (Homo sapiens (Human), UniProt P78527)
Assay: In vitro enzymatic activity, ADP-Glo Kinase Assay
Assay type: biochemical
Settings: starting concentration 1 μM, 10 concentrations
Method: Test substances: the compounds of the present disclosure, whose structural formulas and preparation methods are shown in the Examples.
1. Preparation of 1-Fold Kinase Buffer
1) The detection starting concentration of the compound was 1 μM, and it was prepared to a 100-fold concentration, namely 100 μM. 2 μl of […] was taken, 198 μl of 100% DMSO was added, and it was prepared into 100 μM compound solution. 100 μl of the compound of 100-fold concentration was added to a second well on a 96-well plate, and 60 μl of 100% DMSO was added to other wells. 30 μl of the compound was taken from the second well and added to a third well, it was diluted downwards sequentially by 3 times, and there was a total of 10 concentrations diluted.
2) 100 μl of 100% DMSO and positive control wortmannin with the highest concentration (400 nM) were transferred to two empty wells as a Max well and a Min well respectively.
3) 50 nl of the compound was transferred to a 384-well plate by Echo.
3. Preparation of 2× Kinase Solution
1) The 1-fold kinase buffer was used to prepare 2-fold DNA-PK kinase solution.
2) 2.5 μl of the 2-fold kinase solution was transferred to a reaction well of the 384-well plate.
3) It was shaken, mixed uniformly, and still placed at a room temperature.
4. Preparation of 2× Substrate Solution
1) The 1-fold kinase buffer was used to prepare 2-fold substrate solution.
2) 2.5 μl of the 2-fold substrate solution was transferred to the reaction well of the 384-well plate for a starting reaction.
3) It was shaken, and mixed uniformly.
5. Kinase Reaction and Termination
1) The 384-well plate was covered by a cover, and incubated at 28° C for 3 hours.
2) 5 μl of ADP-Glo reagent was transferred, and incubated at 28° C. for 2 hours.
6. Detection of Reaction Result
1) 10 μl of a kinase detection reagent was transferred into the reaction well of the 384-well plate for terminating the reaction.
2) It was still placed at the room temperature for 30 minutes.
Sample values were read on Envision.
8. Inhibition Rate Calculation
1) Data was copied from Envision.
2) It was converted into inhibition rate data.
Inhibition percentage=(max-conversion)/(max-min)*100. Wherein, max refers to the conversion rate of a DMSO control, min refers to the conversion rate of a control without enzyme activity, and conversion refers to the conversion rate of the test compound at each concentration.
3) The data was imported into MS Excel and XLFit excel add-in version 5.4.0.8 was used for curve fitting.

Row | SMILES | IC50
1 | Cc1cc2ncnn2cc1Nc1ncc2c(n1)N1C(=NCC13CCC(O)CC3)N2C (single isomer, unassigned) [Compound 7-1, 5′-methyl-2′-((7-methyl-[1,2,4]-triazolo[1,5-a]pyridin-6-yl)amino)-5′,7″-dihydrospiro[cyclohexane-1,8′-imidazo[1,2-e]purine]-4-ol] | 0.62 nM
2 | Cc1cc2ncnn2cc1Nc1ncc2c(n1)N1C(=NCC13CCC(O)CC3)N2C (single isomer, unassigned) [Compound 7-2, 5′-methyl-2′-((7-methyl-[1,2,4]-triazolo[1,5-a]pyridin-6-yl)amino)-5′,7″-dihydrospiro[cyclohexane-1,8′-imidazo[1,2-e]purine]-4-ol] | 0.72 nM
3 | COC1CCC2(CC1)CN=C1N(C)c3cnc(Nc4cn5ncnc5cc4C)nc3N12 (single isomer, unassigned) [Compound 16-1, 4-methoxy-5′-methyl-N-(7-methyl-[1,2,4]triazolo[1,5-a]pyridin-6-yl)-5′,7′-dihydrospiro[cyclohexane-1,8′-imidazo[1,2-e]purin]-2′-amine] | 3 nM
4 | COC1CCC2(CC1)CN=C1N(C)c3cnc(Nc4cn5ncnc5cc4C)nc3N12 (single isomer, unassigned) [Compound 16-2, 4-methoxy-5′-methyl-N-(7-methyl-[1,2,4]triazolo[1,5-a]pyridin-6-yl)-5′,7′-dihydrospiro[cyclohexane-1,8′-imidazo[1,2-e]purin]-2′-amine] | 2.2 nM
5 | Cc1cc2ncnn2cc1Nc1ncc2c(n1)N1C(=NCC13CCOCC3)N2C [Compound 1, 5-methyl-N-(7-methyl-[1,2,4]triazolo[1,5-a]pyridin-6-yl)-2′,3′,5,5′,6′,7-hexanydrospiro[imidazo[1,2-e]purine-8,4′-pyran]-2-amine] | 0.82 nM
6 | Cc1cc2ncnn2cc1Nc1ncc2nc3n(c2n1)C1(CCOCC1)CN3C [Compound 2, 6-methyl-N-(7-methyl-[1,2,4]triazolo[1,5-a]pyridin-6yl)-2′,3′,5′,6,6′,7-hexahydrospiro[imidazo[1,2-e]purine-8,4′-pyran]-2-amine] | 22 nM
7 | Cc1cc2ncnn2cc1Nc1ncc2nc3n(c2n1)C1(CCOCC1)CN3 [Compound 3, N-(7-methyl[1,2,4]-triazolo[1,5-a]pyridin-6-yl)-2′,3′,5′,6,6′,7-hexahydrospiro[imidazo[1,2-e]purine-8,4′-pyran]-2-amine] | 10.6 nM
8 | Cc1cc2ncnn2cc1Nc1ncc2c(n1)N1C(=NCC13CCCCC3)N2C [Compound 4, 5′-methyl-N-(7-methyl-[1,2,4]triazolo[1,5-a]pyridin-6-yl)-5′,7′-dihydrospiro[cyclonexane-1,8′-imidazo[1,2-e]purine]-2′-amine] | 0.8 nM
9 | Cc1cc2ncnn2cc1Nc1ncc2c(n1)N1C(=NCC13CCC(F)(F)CC3)N2C [Compound 5, 4,4-difluoro-5″-methyl-N-(7-methyl-[1,2,4]-triazolo[1,5-a]pyridin-6-yl)-5′,7′-dihydrospiro[cyclohexane-1,8′-imidazo[1,2-e]purine]-2′-amine] | 1.63 nM
10 | Cc1cc2ncnn2cc1Nc1ncc2c(n1)N1C(=NCC13CCC(=O)CC3)N2C [Compound 6, 5′-methyl-2-((7-methyl-[1,2,4]-triazolo[1,5-a]pyridin-6-yl)amino)-5′,7′-dihydrospiro[cyclonexane-1,8′-imidazo[1,2-e]purine]-4-one] | 4.8 nM
11 | Cc1cc2ncnn2cc1Nc1ncc2c(n1)N1C(=NCC13CCSCC3)N2C [Compound 8, 5-methyl-N-(7-methyl-[1,2,4]triazolo[1,5-a]pyridin-6yl)-2′,3′,5,5′,6′,7-hexahydrospiro[imidazo[1,2-]purine-8,4′thiopyran]-2-amine] | 0.89 nM
12 | Cc1cc2ncnn2cc1Nc1ncc2c(n1)N1C(=NCC13CCS(=O)(=O)CC3)N2C [Compound 9, 5-methyl-2-((7-methyl-[1,2,4]-triazolo[1,5-a]pyridin-6-yl)amino)-2′,3′,5,5′,6′,7-hexahydrospiro[imidazo[1,2-e]purine-8,4′-thiopyran]1′,1′-dioxide] | 21 nM
13 | COC1(C)CCC2(CC1)CN=C1N(C)c3cnc(Nc4cn5ncnc5cc4C)nc3N12 (stereo not shown) [Compound 15-1, 4-methoxy-4,5′-dimethyl-N-(7-methyl-[1,2,4]triazolo[1,5-a]pyridin-6H)-5′7′-dihydrospiro[cyclohexane-1,8′-imidazo[1,2-e]purin]-2′-amine] | 1.37 nM
14 | Cc1cc2ncnn2cc1Nc1ncc2c(n1)N1C(=NCC1(C)CCO)N2C (stereo not shown) [Compound 17, 2-(5,8-dimethyl-2-((7-methyl-[1,2,4]-triazolo[1,5-a]pyridin-6-yl)amino)-7,8-dihydro-5H-imidazo[1,2-e]purin-8-yl) ethan-1-ol] | 9.8 nM
15 | Cc1cc2ncnn2cc1Nc1ncc2c(n1)N1C(=NCC13CCOC3)N2C (stereo not shown) [Compound 18, 5′-methyl-N-(7-methyl-[1,2,4]-triazolo[1,5-a]pyridin-6-yl)-4,5,5′,7′-tetrahydro-2-H-spiro[furan-3, 8′-imidazo[1,2-e]purin]-2′-amine] | 1.4 nM
16 | Cc1cc2ncnn2cc1Nc1ncc2c(n1)N1C(=NCC13CCCOCC3)N2C (stereo not shown) [Compound 19, 5methyl-N-(7-methyl-[1,2,4]triazolo[1,5-a]pyridin-6-yl)-5,7-dihydrospiro[imidazo[1,2-e]purine-8,4′-oxepan]-2-amine] | 1.6 nM
17 | Cc1cc2ncnn2cc1Nc1ncc2c(n1)N1C(=NC[C@@]13CCCOCC3)N2C [Compound 19-1] | 1.1 nM
18 | Cc1cc2ncnn2cc1Nc1ncc2c(n1)N1C(=NC[C@]13CCCOCC3)N2C [Compound 19-2] | 1.7 nM
19 | Cc1cc2ncnn2cc1Nc1ncc2c(n1)N1C(=NCC13CC[S+]([O-])CC3)N2C (stereo not shown) [Compound 20, 5-methyl-2-((7-methyl-[1,5-a]pyridin-6-yl)amino)-2′,3′,5,5′,6′,7-hexanydrospiro[imidazo[1,2-e]purine-8,4′-thiopyran]-1′-oxide] | 18.7 nM
